≈ marks a conversion by molar mass, not a printed value. Read-outs that look alike come from different tables or passages of the source.
Legend:
[1] = test system: Escherichia coli 7623 ΔtolC; assay: MIC broth microdilution; assay type: cell-based
[2] = test system: E. coli TOP10 ∆TolC, pHN678’ and pHN678’-LolA antisense; assay: MoA study: MIC in lolA antisense expressor; assay type: cell-based, Escherichia coli; conditions: for MIC: Escherichia coli
[3] = test system: Klebsiella pneumoniae 1161486a ΔtolC; assay: MIC broth microdilution; assay type: cell-based
[4] = test system: Acinetobacter baumannii BM4652 ΔadeABC ΔadeIJK (efflux mutant); assay: MIC broth microdilution; assay type: cell-based
[5] = test system: Acinetobacter baumannii ATCC 19606-1 ΔLpxC; assay: MIC broth microdilution; assay type: cell-based; conditions: ATCC19606
[6] = test system: Staphylococcus aureus RN4220; assay: MIC broth microdilution; assay type: cell-based; conditions: S. aureus RN4220 Gram-positive
Method: (§1) 409 remaining NADPH to convert resazurin into the fluorescent resorufin14. The assay buffer containing
(§2) 410 81.4 mM Hepes pH 7.8, 300 mM KCl, 0.4 mg/mL BSA was used to make the enzyme addition containing
(§3) 411 1.2 μg/mL Mtb DHFR and 50 μM NADPH. This was added in equal volume (5 μL) to a substrate solution
(§4) 412 composed of 240 µM DHF in H2O and incubated for 50 min. Developing solution was prepared with
(§5) 413 0.045 mM Resazurin and 0.6 U/ml Diaphorase in 200 mM sodium phosphate buffer pH 7.8 and 5 μL was
(§6) 414 added. The experiments were conducted in black 384-well plates (Greiner Catalog # 784076) and all
(§7) 415 liquid additions were conducted using a Multidrop combi (Thermo Scientific). The plate was read on a
(§8) 416 ViewLux following a 10 minute delay. Resorufin light production was measured using appropriate
(§9) 417 Viewlux filters: Ex: 525 / 20 Pol (BODIPY TMR FP) Em: 598 / 25 (BODIPY TMR) (B04). Assay plates were
(§10) 418 pre-dispensed with 100 nL DMSO or with 100 nL compounds dissolved in neat DMSO using an Echo®
(§11) 419 liquid handler (Labcyte Inc.) where all wells contained compound samples, except wells in columns 6
420 and 18 that contained DMSO control. Column 6 represented 100% Mtb DHFR activity in the absence of […]
424 were calculated using the n-1 method. […]
(§12) 440 saline). […] Fluorescence was measured (Spectramax M5 […]
(§13) 444 Minimum inhibitory concentrations (MICs) of compounds were determined using broth microdilution […]

[7] = test system: H. influenzae ΔtolC; assay: MIC broth microdilution; assay type: cell-based; conditions: Haemophilus influenzae
[8] = test system: Pseudomonas aeruginosa PA0322 Δ(mexAB-oprM) Δ(mexCD-oprJ) Δ(mexEF-oprN); assay: MIC broth microdilution; assay type: cell-based
[9] = test system: M. tuberculosis H37Rv; assay: MIC determination against M. tuberculosis H37Rv (resazurin); assay type: cell-based; conditions: Mycobacterium tuberculosis
Method: as §1, §2, §3, §4, §5, §6, §7, §8, §9, §10, §11
420 and 18 that contained DMSO control. Column 6 represented 100% Mtb DHFR activity in the absence of
421 GSK compounds. […] Compounds were
422 tested at 1% DMSO in 11 point dose response with a 1:3 dilution and fit to a standard 4 parameter fit to
423 calculate an IC50 value and are reported as the average of two replicates. Standard deviation values
424 were calculated using the n-1 method.
428 Minimum Inhibitory Concentration Assays:
429 MIC determination against M. tuberculosis H37Rv:
430 The measurement of the Minimum Inhibitory Concentration (MIC) against M. tuberculosis H37Rv for
431 each tested compound was performed in 96-well flat-bottom, polystyrene microtiter plates in a final
432 volume of 100 μl. Ten two-fold drug dilutions in neat DMSO starting at 50 mM were performed. Drug […]
as §12, §13

[10] = molecular target: M. tuberculosis Dihydrofolate reductase (DHFR) (Mycobacterium tuberculosis, UniProt P9WNX1); assay: biochemical
Chain of M. tuberculosis Dihydrofolate reductase (DHFR) (P9WNX1 whole entry): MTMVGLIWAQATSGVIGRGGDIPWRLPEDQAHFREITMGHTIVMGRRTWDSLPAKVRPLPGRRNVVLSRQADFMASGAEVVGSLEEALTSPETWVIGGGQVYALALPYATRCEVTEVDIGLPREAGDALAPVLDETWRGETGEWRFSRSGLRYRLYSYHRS

[11] = test system: A. baumannii BM4652 strains; assay: Potentiation of teicoplanin MIC by LpxA compound 4; assay type: cell-based, Acinetobacter baumannii
[12] = E. coli TOP10 ∆TolC + pHN678’-LolA antisense
[13] = M. tuberculosis DHFR, average of two replicates with s.d., read-out: IC50

Molecule: CCNc1cc(N2CCc3cc(NS(C)(=O)=O)ccc3C2C)nc(-c2cc(F)cc(C#N)c2)n1 (stereo not shown) [Compound 6]
- MIC [1]: > 128 µg/mL
- MIC ([2]; E. coli TOP10 ∆TolC + pHN678’): 128 µg/mL
- MIC [2, 12]: 4 µg/mL
- Fold MIC decrease ([2]; lolA antisense plasmid compared to vector alone): 32 fold
- MIC [3]: > 128 µg/mL
- MIC ([4]; A. baumannii BM652 efflux strain): > 128 µg/mL
- MIC ([4]; A. baumannii BM4652 ΔadeABC ΔadeIJK efflux mutant): > 128 µg/mL
- MIC [5]: 32 µg/mL (≈ 66.6 µM)
- MIC [6]: > 128 µg/mL
- MIC [7]: 2 µg/mL (≈ 4.16 µM)
- MIC [8]: > 128 µg/mL

Molecule: Cc1ccc(S(=O)(=O)NCCN(CCC(N)=O)C(=O)c2cc(O)cc(NC(=O)CN3C(=O)C(C)Oc4ccccc43)c2)cc1 (stereo not shown) [Compound 7]
- MIC [9]: 80 µM (≈ 49.9 µg/mL)
- IC50 [10, 13]: 492 ± 4 nM

Molecule: COc1ccc(OC)c(Cc2cnc3nc(N)nc(N)c3c2C)c1 [Compound 8]
- MIC [9]: 2.5 µM (≈ 0.813 µg/mL)
- IC50 [10]: 610 ± 420 nM

Molecule: Cc1cccc(NC(=O)Cc2c(C(=O)O)[nH]c3ccccc23)n1 [Compound 9]
- MIC [9]: 80 µM (≈ 24.7 µg/mL)
- IC50 [10, 13]: 4900 ± 2200 nM

Molecule: C[C@@H](O)[C@H]1C(=O)N2C(C(=O)O)=C(SCCN=CN)C[C@H]12 [Imipenem]
- MIC ([2]; E. coli TOP10 ∆TolC + pHN678’): 1 µg/mL
- MIC [2, 12]: 1 µg/mL

Molecule: teicoplanin
- MIC of teicoplanin ([11]; A. baumannii BM4652/pRK415-LpxA, compound 4 at 0 µg/ml): > 64 µg/mL
- MIC of teicoplanin ([11]; A. baumannii BM4652/pRK415-LpxA, compound 4 at 4 µg/ml): > 64 µg/mL
- MIC of teicoplanin ([11]; A. baumannii BM4652/pRK415-LpxA, compound 4 at 8 µg/ml): > 64 µg/mL
- MIC of teicoplanin ([11]; A. baumannii BM4652/pRK415-LpxA, compound 4 at 16 µg/ml): > 64 µg/mL
- MIC of teicoplanin ([11]; A. baumannii BM4652/pRK415-LpxA, compound 4 at 32 µg/ml): > 64 µg/mL
- MIC of teicoplanin ([11]; A. baumannii BM4652/pRK415-LpxA, compound 4 at 64 µg/ml): > 64 µg/mL
- MIC of teicoplanin ([11]; A. baumannii BM4652/pRK415-LpxA, compound 4 at 128 µg/ml): > 64 µg/mL
- MIC of teicoplanin ([11]; A. baumannii BM4652/pRK415, compound 4 at 0 µg/ml): > 64 µg/mL
- MIC of teicoplanin ([11]; A. baumannii BM4652/pRK415, compound 4 at 4 µg/ml): > 64 µg/mL
- MIC of teicoplanin ([11]; A. baumannii BM4652/pRK415, compound 4 at 8 µg/ml): > 64 µg/mL
- MIC of teicoplanin ([11]; A. baumannii BM4652/pRK415, compound 4 at 16 µg/ml): > 64 µg/mL
- MIC of teicoplanin ([11]; A. baumannii BM4652/pRK415, compound 4 at 32 µg/ml): 0.5 µg/mL
- MIC of teicoplanin ([11]; A. baumannii BM4652/pRK415, compound 4 at 64 µg/ml): 0.5 µg/mL
- MIC of teicoplanin ([11]; A. baumannii BM4652/pRK415, compound 4 at 128 µg/ml): 0.5 µg/mL
- MIC of teicoplanin ([11]; A. baumannii BM4652, compound 4 at 0 µg/ml): > 64 µg/mL
- MIC of teicoplanin ([11]; A. baumannii BM4652, compound 4 at 4 µg/ml): > 64 µg/mL
- MIC of teicoplanin ([11]; A. baumannii BM4652, compound 4 at 8 µg/ml): > 64 µg/mL
- MIC of teicoplanin ([11]; A. baumannii BM4652, compound 4 at 16 µg/ml): 16 µg/mL
- MIC of teicoplanin ([11]; A. baumannii BM4652, compound 4 at 32 µg/ml): 0.5 µg/mL
- MIC of teicoplanin ([11]; A. baumannii BM4652, compound 4 at 64 µg/ml): 0.5 µg/mL
- MIC of teicoplanin ([11]; A. baumannii BM4652, compound 4 at 128 µg/ml): 0.5 µg/mL

From PMC5520047, “Prioritizing multiple therapeutic targets in parallel using automated DNA-encoded library screening” (Nature Communications, 2017)
